Laboratory results reported in patent US20140242019A1, “COMPOSITION FOR PREVENTING HAIR LOSS AND GROWING HAIR COMPRISING HYDROXYDIHYDROBOVOLIDE” (Pukyong National University Industry-University Cooperation …, priority 2013, published 2014).
Entries after “also recorded” stand apart in the source; their conditions may differ.

Tests used:
[1] = test system: hair outer root sheath cells; experiment: MTT cell proliferation / survival rate in hair outer root sheath cells; assay type: cell-based, human; conditions: 24 h
Protocol: (§1) All of the tests were performed after obtaining approval of Ethics Commission of Medical College, Kyungpook National University. As samples of hairs, hairs in intact state were collected from scalps in the backs of the heads of male hair transplant patients. All of the hair samples were used with the consent of hair transplant patient who provides the samples. The area of subcutaneous fat of scalp including a hair follicle was isolated from the hair sample, and then the hair follicle was isolated by using a binocular microscope. In order to obtain hair papilla cells, the hair papilla was isolated from the hair follicle, and then shifted to a dish that was coated with bovine type I collagen. Then, the hair papilla in the dish was cultured (in an incubator at 37° C. and 5% CO2) in a DEME (Gibco BRL, Gaithersburg. Md., USA) medium including 20% heat inactivated fetal bovine serum including penicillin (100 U/mL) and streptomycin ([…]). […]
(§2) It was investigated whether or not the hydroxydihydrobovolide compound according to the present invention has an effect on cell proliferation in hair follicle cells and cells in the outer root sheath, in which the cells were closely associated with hair growth. […] After 30 minutes, absorbance of the cells was measured (570 nm).

human hair tissues = experiment: Evaluation of hair growth using human hair tissue culture; assay type: cell-based; conditions: 5 μM
Protocol: The human hair tissues were supplied from an immunology laboratory in Kyungpook National University. The human hair tissues were cultured in an incubator at 37° C. and CO2 by using Williams E media (Sigma, USA) including 2 mM L-glutamin, 100 U/mL of streptomycin, and 10 ng/ml of hydrocortisone. The test materials with various concentrations were cultured for 6 days, and the lengths of hairs were measured on the third days and sixth day.

[2] = test system: human hair follicle dermal papilla cells; experiment: MTT cell proliferation / survival rate in human hair follicle dermal papilla cells; assay type: cell-based; conditions: 24 h
Protocol: as §1, §2

CCCCCC1(O)OC(=O)C(C)=C1C (stereo not drawn) [hydroxydihydrobovolide, 5-hydroxy-3,4-dimethyl-5-pentylfuran-2(5H)-one]
cell proliferation increased by ([1]; 0.5 μM, vs control group, highest effect): 156%
cell proliferation compared with control group ([1]; 0.005 to 0.5 μM): significantly higher cell proliferation rate than the control group; also recorded: significantly higher than that of the control group
length of hair on the third day (human hair tissues; day 3 of culture): 0.62 mm
length of hair on the sixth day (human hair tissues; day 6 of culture): 1.38 mm
cell proliferation increased by ([2]; 0.05 μM, vs untreated control group, p<0.05): 144%
effect on cell proliferation compared with control group ([2]; 0.005 to 0.5 μM): significant cell proliferation effect; also recorded: significant effects on cell proliferation
